Assay results reported in patent US12415830B2, “Steroid compound, and use thereof and preparation method therefor” (Chengdu Kanghong Pharmaceutical Co Ltd, priority 2019, dated 2025).
pEC50: −log10 of the molar value.

Molecular target: T1, GABAA1 (α1β2γ2) receptor (Homo sapiens, UniProt P14867+P47870)
T1 construct: expressed in transfected cells
Test: Patch-clamp electrophysiology on recombinant GABAA1 receptor in HEK293 cells, with 3 μM GABA
Type: cell-based
Conditions: for Emax at 0.1 µM / Emax at 1 µM / Emax: HEK293; for Emax at 0.1 µM: 0.1 μM compound together with 3 μmol GABA; for Emax at 0.1 µM / Emax at 1 µM: read-out: potency: ratio of the peak current on the GABAA1 receptor to the peak current in 100 μmol GABA; for Emax at 1 µM: 1 μM compound together with 3 μmol GABA; for Emax / pEC50: together with 3 μmol GABA; for Emax: relative to peak current in 100 μmol GABA
Description: The present invention applies the two subunits of the recombinant GABAA receptor: α1β2γ2 and α4β3δ to evaluate the potency of the exemplary compounds in vitro by patch-clamp electrophysiology.
Extracellular fluid: 140 mM NaCl, 5 mM CsCl, 2 mM CaCl2·2H2O, 1 mM MgCl2·6H2O, 5 mM HEPES, 10 mM D-Glucose, pH=7.4 (NaOH).
Intracellular fluid: 130 mM CsCl, 0.1 mM CaCl2·H2O, 2 mM MgCl2·6H2O, 1.1 mM EGTA, 5 mM Na2-ATP, 10 mM HEPES, pH=7.2 (CsOH).
The HEK293 cells line stably expressing GABAA (α1β2γ2) receptors was cultured in Dulbecco's Modified Eagle Medium (DMEM) supplemented with 10% fetal bovine serum, 800 μg/mL G418, 200 μg/mL Hygromycin B and 100 μg/mL Zeocin. Cells were grown in a humidified incubator at 37° C. with 5% carbon dioxide.
Before manual patch clamp test, the cells were detached using 0.25%-Trypsin-EDTA solution. Then 8×10^3 cells were plated onto coverslips, and cultured in a 24-well plate (final medium volume: 500 μL) and tested after 18 hours by patch clamp.
Glass pipette (BF 150-86-10, Sutter Instruments) was pulled using a micropipette puller (P97, Sutter Instruments). The glass pipette was manipulated using a micro-manipulator (MP285, Sutter Instruments) under the microscope (IX71, Olympus). After touching the cell, a slight suction was applied to achieve high seal resistance (GQ). Fast capacitance (in pF) compensation was made after achieving high seal, and the membrane was broken. Cell capacitance (in pF) compensation was made from whole-cell capacitance compensation after the whole cell mode was achieved. No leak subtraction was made.
The test and control solutions flowed into a recording chamber mounted on the stage of an inverted microscope via a gravity-fed solution delivery system. During the experiment, solutions were withdrawn from the recording chamber by vacuum aspiration. Each concentration was tested at multiple times. All tests were performed at room temperature.
Whole cell model recorded GABAA1 receptors current experimental protocol was indicated as follows: When sealing, cell was at a holding potential of −70 mV, with gap-free mode to record the peak current. The cell would be applied with 3 μM GABA to active current. After the test articles application for 30 s, each concentration of test articles was applied with 3 μM GABA followed by 2 minutes washout using extracellular solution. Finally, 100 μM GABA was used as a positive control. The data were collected by EPC-10 amplifier and stored in PatchMaster (HEKA) software.
The following criteria are used to determine whether the data is acceptable: • (1) Electrode resistance <5MΩ • (2) Seal resistance >1GΩ • (3) The start of access resistance <15 MΩ • (4) The end of access resistance <15 MΩ • (5) No obvious spontaneous current decay. • (6) No obvious current leakage when the membrane potential is-70 mv. 56.6 Data Analysis
In the detection of GABAA1, the currents of 3 μM GABA and different concentrations of test compounds were respectively normalized to the current of 100 μM GABA
[formula] and then the activation rate corresponding to each concentration was calculated.
[formula] and then the activation rate corresponding to each concentration was calculated. Means, Standard Deviation and Standard Error were calculated for each test group. EC50 value was calculated using nonlinear regression: Y=Bottom+(Top−Bottom)/(1+10^((Log EC50−X)×HillSlope))
To fit data to the concentration-response, EC50 was the concentration giving a half-maximum effect and Hillslope was the Hill coefficient. Curve-fitting and EC50 calculations were performed using Graphpad5.0 software.
Emax is defined as the ratio of the peak current generated on the GABAA1 receptor to the peak current generated only in 100 μmol of GABA and the ratio is multiplied by 100%. The peak current generated on the GABAA1 receptor is that the exemplary compounds act on the GABAA1 receptor together with 3 μmol GABA.

T1 sequence (P14867 28-456): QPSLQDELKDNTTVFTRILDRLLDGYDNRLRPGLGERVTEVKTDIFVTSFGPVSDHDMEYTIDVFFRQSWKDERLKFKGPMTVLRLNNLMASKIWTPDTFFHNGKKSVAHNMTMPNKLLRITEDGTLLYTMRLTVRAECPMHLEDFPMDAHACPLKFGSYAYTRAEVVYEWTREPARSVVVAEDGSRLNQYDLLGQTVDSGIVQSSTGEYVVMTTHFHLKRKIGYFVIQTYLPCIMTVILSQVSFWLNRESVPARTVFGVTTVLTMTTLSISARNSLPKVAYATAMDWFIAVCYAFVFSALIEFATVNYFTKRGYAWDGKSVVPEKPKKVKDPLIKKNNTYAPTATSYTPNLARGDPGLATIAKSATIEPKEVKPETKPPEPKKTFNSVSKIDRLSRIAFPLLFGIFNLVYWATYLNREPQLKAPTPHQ
T1 sequence (P47870 26-512): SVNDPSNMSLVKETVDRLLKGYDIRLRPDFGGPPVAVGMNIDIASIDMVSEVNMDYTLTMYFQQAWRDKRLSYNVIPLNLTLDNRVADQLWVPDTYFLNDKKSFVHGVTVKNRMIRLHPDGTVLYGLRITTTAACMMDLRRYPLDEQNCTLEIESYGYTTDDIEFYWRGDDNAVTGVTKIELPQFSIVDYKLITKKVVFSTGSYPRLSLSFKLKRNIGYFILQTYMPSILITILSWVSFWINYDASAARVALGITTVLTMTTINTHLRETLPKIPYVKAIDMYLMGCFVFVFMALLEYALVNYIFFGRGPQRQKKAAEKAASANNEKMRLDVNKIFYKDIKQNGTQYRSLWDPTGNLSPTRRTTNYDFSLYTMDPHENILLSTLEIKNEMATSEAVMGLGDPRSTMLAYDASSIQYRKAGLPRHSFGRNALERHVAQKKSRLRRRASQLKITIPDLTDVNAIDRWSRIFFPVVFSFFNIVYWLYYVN
T1 sequence (P18507 40-475 partner): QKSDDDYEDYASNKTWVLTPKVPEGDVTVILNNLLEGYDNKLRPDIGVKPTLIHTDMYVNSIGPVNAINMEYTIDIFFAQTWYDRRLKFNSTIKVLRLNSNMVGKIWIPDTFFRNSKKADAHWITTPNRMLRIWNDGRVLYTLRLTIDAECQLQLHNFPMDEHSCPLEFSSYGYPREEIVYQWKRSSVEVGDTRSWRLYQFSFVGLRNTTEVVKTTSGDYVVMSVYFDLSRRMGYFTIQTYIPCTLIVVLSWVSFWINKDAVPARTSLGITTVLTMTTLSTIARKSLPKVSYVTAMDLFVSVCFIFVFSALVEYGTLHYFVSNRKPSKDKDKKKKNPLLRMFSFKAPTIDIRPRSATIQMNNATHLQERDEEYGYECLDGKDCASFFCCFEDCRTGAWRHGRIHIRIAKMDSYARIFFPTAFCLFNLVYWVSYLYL

Row | Structure (SMILES) | Emax at 0.1 µM | Emax at 1 µM | Emax | pEC50
1 | C[C@]12CC[C@@H](O)C[C@@H]1CC[C@@H]1[C@@H]2CC[C@]2(C)[C@@H](C(=O)Cn3cc(C#N)cn3)CCC[C@@H]12 [KH002] | 0 to 20% | 60 to 80% | 74.6% | 6.33
2 | C[C@]12CC[C@@H](O)C[C@@H]1CC[C@@H]1[C@@H]2CC[C@]2(C)[C@@H](C(=O)Cn3ccnn3)CCC[C@@H]12 [KH003] | 20 to 40% | 60 to 80% | 72.8% | 6.32
3 | C[C@]12CC[C@@H](O)C[C@@H]1CC[C@@H]1[C@@H]2CC[C@]2(C)[C@@H](C(=O)Cn3cnnn3)CCC[C@@H]12 [KH005] | 20 to 40% | 60 to 80% |  | 
4 | C[C@]12CC[C@@H](O)C[C@@H]1CC[C@@H]1[C@@H]2CC[C@]2(C)[C@@H](C(=O)Cn3cccn3)CCC[C@@H]12 [KH006] | 20 to 40% | 40 to 60% |  | 
5 | C[C@]12CC[C@@H](O)C[C@@H]1CC[C@@H]1[C@@H]2CC[C@]2(C)[C@@H](C(=O)Cn3ccnc3)CCC[C@@H]12 [KH007] | 0 to 20% | 40 to 60% |  | 
6 | C[C@]12CC[C@@H](O)C[C@@H]1CC[C@@H]1[C@@H]2CC[C@]2(C)[C@@H](C(=O)Cn3ccc(C#N)n3)CCC[C@@H]12 [KH008] | 20 to 40% | > 80% |  | 
7 | C[C@]12CC[C@@H](O)C[C@@H]1CC[C@@H]1[C@@H]2CC[C@]2(C)[C@@H](C(=O)Cn3ccc4ccccc43)CCC[C@@H]12 [KH009] | 20 to 40% | > 80% |  | 
8 | C[C@]12CC[C@@H](O)C[C@@H]1CC[C@@H]1[C@@H]2CC[C@]2(C)[C@@H](C(=O)Cn3cc(C(F)(F)F)cn3)CCC[C@@H]12 [KH010] | 0 to 20% | 20 to 40% |  | 
9 | C[C@]12CC[C@@H](O)C[C@@H]1CC[C@@H]1[C@@H]2CC[C@]2(C)[C@@H](C(=O)Cn3ncc4ccccc43)CCC[C@@H]12 [KH011] | 20 to 40% | 60 to 80% |  | 
10 | C[C@]12CC[C@@H](O)C[C@@H]1CC[C@@H]1[C@@H]2CC[C@]2(C)[C@@H](C(=O)Cn3cnc4cncnc43)CCC[C@@H]12 [KH012] | 0 to 20% | 60 to 80% |  | 
11 | C[C@]12CC[C@@H](O)C[C@@H]1CC[C@@H]1[C@@H]2CC[C@]2(C)[C@@H](C(=O)Cn3cc(Cl)cn3)CCC[C@@H]12 [KH013] | 0 to 20% | 0 to 20% |  | 
12 | C[C@]12CC[C@@H](O)C[C@@H]1CC[C@@H]1[C@@H]2CC[C@]2(C)[C@@H](C(=O)CO)CCC[C@@H]12 [KH014] | 0 to 20% | 40 to 60% |  | 
13 | C[C@]12CC[C@@H](O)C[C@@H]1CC[C@@H]1[C@@H]2CC[C@]2(C)[C@@H](C(=O)Cn3cnc4ncnc(Cl)c43)CCC[C@@H]12 [KH015] | 0 to 20% | 0 to 20% |  | 
14 | C[C@]12CC[C@@H](O)C[C@@H]1CC[C@@H]1[C@@H]2CC[C@]2(C)[C@@H](C(=O)CSc3cccs3)CCC[C@@H]12 [KH016] | 0 to 20% | 40 to 60% |  | 
15 | COc1ncnc2ncn(CC(=O)[C@H]3CCC[C@H]4[C@@H]5CC[C@H]6C[C@H](O)CC[C@]6(C)[C@H]5CC[C@]34C)c12 [KH017] | 0 to 20% | 0 to 20% |  | 
16 | Cc1nnn(CC(=O)[C@H]2CCC[C@H]3[C@@H]4CC[C@H]5C[C@H](O)CC[C@]5(C)[C@H]4CC[C@]23C)n1 [KH018] | 0 to 20% | 20 to 40% |  | 
17 | Cc1nnnn1CC(=O)[C@H]1CCC[C@H]2[C@@H]3CC[C@H]4C[C@H](O)CC[C@]4(C)[C@H]3CC[C@]12C [KH019] | 0 to 20% | 0 to 20% |  | 
18 | C[C@]12CC[C@@H](O)C[C@@H]1CC[C@@H]1[C@@H]2CC[C@]2(C)[C@@H](C(=O)CN3CC4(COC4)C3)CCC[C@@H]12 [KH020] | 0 to 20% | 0 to 20% |  | 

Row | Structure (SMILES) | Emax at 0.1 µM | Emax at 1 µM | Emax | pEC50
19 | CC(=O)[C@H]1CCC[C@H]2[C@@H]3CC[C@H]4C[C@](C)(O)CC[C@]4(C)[C@H]3CC[C@]12C [KH021] | 0 to 20% | 0 to 20% |  | 
20 | C[C@@]1(O)CC[C@@]2(C)[C@@H](CC[C@@H]3[C@@H]2CC[C@]2(C)[C@@H](C(=O)Cn4cnnn4)CCC[C@@H]32)C1 [KH023] | 0 to 20% | 0 to 20% |  | 
21 | C[C@@]1(O)CC[C@@]2(C)[C@@H](CC[C@@H]3[C@@H]2CC[C@]2(C)[C@@H](C(=O)Cn4ccc(C#N)n4)CCC[C@@H]32)C1 [KH024] | 0 to 20% | 40 to 60% |  | 
22 | C[C@@]1(O)CC[C@@]2(C)[C@@H](CC[C@@H]3[C@@H]2CC[C@]2(C)[C@@H](C(=O)C(n4cc(C#N)cn4)n4cc(C#N)cn4)CCC[C@@H]32)C1 [KH027] | 0 to 20% | 0 to 20% |  | 
23 | C[C@@]1(O)CC[C@@]2(C)[C@@H](CC[C@@H]3[C@@H]2CC[C@]2(C)[C@@H](C(=O)COc4nc5ccccc5o4)CCC[C@@H]32)C1 [KH028] | 0 to 20% | 0 to 20% |  | 
24 | Cc1cccc2c(OCC(=O)[C@H]3CCC[C@H]4[C@@H]5CC[C@H]6C[C@](C)(O)CC[C@]6(C)[C@H]5CC[C@]34C)ncnc12 [KH029] | 0 to 20% | 0 to 20% |  | 
25 | COc1nnc(OCC(=O)[C@H]2CCC[C@H]3[C@@H]4CC[C@H]5C[C@](C)(O)CC[C@]5(C)[C@H]4CC[C@]23C)n1C [KH030] | 0 to 20% | 0 to 20% |  | 
26 | Cn1nnnc1SCC(=O)[C@H]1CCC[C@H]2[C@@H]3CC[C@H]4C[C@](C)(O)CC[C@]4(C)[C@H]3CC[C@]12C [KH031] | 0 to 20% | 40 to 60% |  | 
27 | C[C@@]1(O)CC[C@@]2(C)[C@@H](CC[C@@H]3[C@@H]2CC[C@]2(C)[C@@H](C(=O)COc4ccc5ccccc5n4)CCC[C@@H]32)C1 [KH033] | 0 to 20% | 20 to 40% |  | 
28 | C[C@@]1(O)CC[C@@]2(C)[C@@H](CC[C@@H]3[C@@H]2CC[C@]2(C)[C@@H](C(=O)COc4nc[nH]n4)CCC[C@@H]32)C1 [KH034] | 0 to 20% | 0 to 20% |  | 
29 | C[C@@]1(O)CC[C@@]2(C)[C@@H](CC[C@@H]3[C@@H]2CC[C@]2(C)[C@@H](C(=O)COc4ncnc5c(F)cccc45)CCC[C@@H]32)C1 [KH035] | 0 to 20% | 20 to 40% |  | 
30 | C[C@@]1(O)CC[C@@]2(C)[C@@H](CC[C@@H]3[C@@H]2CC[C@]2(C)[C@@H](C(=O)COc4ncnc5cnc(F)cc45)CCC[C@@H]32)C1 [KH036] | 0 to 20% | 0 to 20% |  | 
31 | Cn1cnnc1SCC(=O)[C@H]1CCC[C@H]2[C@@H]3CC[C@H]4C[C@](C)(O)CC[C@]4(C)[C@H]3CC[C@]12C [KH037] | 0 to 20% | 0 to 20% |  | 
32 | C[C@@]1(O)CC[C@@]2(C)[C@@H](CC[C@@H]3[C@@H]2CC[C@]2(C)[C@@H](C(=O)COc4ccon4)CCC[C@@H]32)C1 [KH038] | 0 to 20% | 40 to 60% |  | 
33 | C[C@@]1(O)CC[C@@]2(C)[C@@H](CC[C@@H]3[C@@H]2CC[C@]2(C)[C@@H](C(=O)Cn4cc(C#N)cn4)CCC[C@@H]32)C1 [KH040] | 0 to 20% | 20 to 40% |  | 
34 | C[C@@]1(O)CC[C@@]2(C)[C@@H](CC[C@@H]3[C@@H]2CC[C@]2(C)[C@@H](C(=O)CSc4cccs4)CCC[C@@H]32)C1 [KH041] | 0 to 20% | 60 to 80% |  | 
35 | C[C@@]1(O)CC[C@@]2(C)[C@@H](CC[C@@H]3[C@@H]2CC[C@]2(C)[C@@H](C(=O)CO)CCC[C@@H]32)C1 [KH042] | 0 to 20% | 40 to 60% |  | 
